# Data: patent publication US20250304623A1, “PEPTIDES FOR INTRACELLULAR DELIVERY” (UNIVERSIDADE DE SANTIAGO DE COMPOSTELA, priority 2022, published 2025)
# Starred links: 1 amine or outer side, 2 acyl side, 3 side chain; linkers in the order of their positions; H or OH if unused. Residues, ends and D or L forms follow the SMILES beside them. Groups on a side chain read outwards from the residue. *: point of attachment. Glutaryl = O=C(CCCC(=O)[*:2])[*:1]; NHNH2 = NN*
# Columns and labels:
# [1] = test system: HepG2 cells expressing EGFP; experiment: Cas9-RNP delivery against EGFP (gene editing, plate reader), HepG2; assay type: cell-based
# Method: To generate an EGFP expressing HeLa cell line, HeLa cells were transfected with EGFP pDNA (pEGFP-C1, Clontech) and stable transfectants were selected with 400 μg/mL of G-418 (Millipore). Green clones were selected by epifluorescence microscopy and tested for EGFP expression stability through several passages. […] All other EGFP-expressing cell lines were obtained in a similar way from parent non-EGFP-expressing cell lines.
# Cells expressing EGFP were seeded in a 96 well plate the day before the experiment at a concentration of 50,000 cell/mL (100 μL/w) in DMEM+10% FBS+1% Gln-Abt. For robotic library screening, the delivery of Cas9-RNP against EGFP (RNP designed to knock-out the gene encoding for the enhanced green fluorescent protein (EGFP)) was performed. For RNP assembly, 9.2 μL of crRNA and 9.2 μL of tracrRNA were mixed in 211.6 μL of Nuclease-Free Duplex Buffer (IDT), incubated for 5 min at 95° C. and slowly cooled at rt (see I. Lostalé-Seijo, et al. Peptide/Cas9 nanostructures for ribonucleoprotein cell membrane transport and gene edition, Chem. Sci., 2017). Cas9 protein was dissolved in DMEM at a final concentration of 4 μM and equal volumes of the RNA complex and Cas9 were mixed and incubated for 5 min at rt. 75 μL of the corresponding amphiphile concentrations were added to 5 μL of RNP at 2 μM. The mixture was shaken for 30 min at room temperature before the addition to the cells. The cell medium was aspirated, and cells were washed twice with PBS. Cells were covered with 30 μL of DMEM and 20 μL of the RNP/amphiphile complexes were added to the cells (final peptide concentrations=2.5, 5 and 10 μM; final Cas9-RNP concentration=50 nM) and incubated for 4 h. After the incubation, the medium was replaced by 100 μL of fresh DMEM supplemented with 10% FBS. The total EGFP fluorescence was quantified after 72 h in a plate reader (FIG. 2, Table 1 (right) and Table 6). All experiments were done in triplicate. […]
# Tables 26-31 show the mean (triplicates) percentage of gene editing, accounted by GFP fluorescence intensity decrease (% of reduction), measured after the transfection of Cas9-RNP by different amphiphiles at different concentrations in a variety of cell lines. Background values, accounted by untreated control cells, were subtracted for processing.
# Hela cells = experiment: RLuc pDNA delivery, robotic library screening, HeLa; assay type: cell-based
# Method: Cells were seeded in a 96 well plate the day before the experiment at a concentration of 60,000 cell/mL (100 μL/w) in DMEM+10% FBS+1% Gln-Abt. For robotic library screening, the delivery of pDNA encoding for the expression of Renilla luciferase gene (RLuc, pRL-CMV (Promega, #E2261)) in six different cell lines was performed. […] The mixture was shaken for 30 min at room temperature before the addition to the cells. The cell medium was aspirated, and cells were washed twice with PBS. Finally, 50 μL of the complex's solution were added to the cells and incubated for 4 h. After the incubation, the medium was replaced by 100 μL of fresh DMEM supplemented with 10% FBS. 72 hours after transfection the DMEM was removed, cells were washed once with HBSS and 90 μL of HBSS were added to each well. Cells were incubated at 37° C. for 30 minutes. Then basal luminescence levels were read in a plate reader. Immediately, 10 μL of coelenterazine h in HBSS were added to each well (5 μM final concentration) and cells were incubated at 37° C. for 10 minutes. Finally, the total luminescence measurement of the plates was performed. Amphiphile transfection efficiency was compared and normalized to Lipofectamine® 2000 efficiency (value of 1 in Tables 1-5 and 7; bold numbers). All experiments were done in triplicate.
# Tables 1-7: RLuc (pDNA) or EGFP (mRNA) expression levels were normalized to Lipofectamine reagents (value=1) and expressed as fold-times signal increase. In the case of siRNA, the siRNA treated cells fluorescence was compared with siMOCK control fluorescence, while Cas9-RNP mediated knockout was measured against the fluorescence of untreated cells. In both siRNA and Cas9-RNP, values are expressed as % fluorescence reduction. Amphiphile concentration was 5 μM in all cases. All experiments were performed in triplicate.
# Tables 8-13 show the mean (triplicates) luminescent intensity (RLU) measured after the transfection of RLuc pDNA by different amphiphiles at different concentrations in a variety of cell lines. Background luminescence values, accounted by untransfected control cells, were subtracted for processing.
Compound,"percentage of gene editing, GFP fluorescence intensity decrease (% of reduction) ([1]; Dodecanal, 10 μM)","percentage of gene editing, GFP fluorescence intensity decrease (% of reduction) ([1]; Dodecanal, 15 μM)","percentage of gene editing, GFP fluorescence intensity decrease (% of reduction) ([1]; Myristoleyl, 5 μM)","percentage of gene editing, GFP fluorescence intensity decrease (% of reduction) ([1]; Myristoleyl, 10 μM)","percentage of gene editing, GFP fluorescence intensity decrease (% of reduction) ([1]; Myristoleyl, 15 μM)","percentage of gene editing, GFP fluorescence intensity decrease (% of reduction) ([1]; Oleyl, 5 μM)","percentage of gene editing, GFP fluorescence intensity decrease (% of reduction) ([1]; Oleyl, 10 μM)","percentage of gene editing, GFP fluorescence intensity decrease (% of reduction) ([1]; Oleyl, 15 μM)","percentage of gene editing, GFP fluorescence intensity decrease (% of reduction) ([1]; Palmitoleyl, 5 μM)","percentage of gene editing, GFP fluorescence intensity decrease (% of reduction) ([1]; Palmitoleyl, 10 μM)","percentage of gene editing, GFP fluorescence intensity decrease (% of reduction) ([1]; Palmitoleyl, 15 μM)","percentage of gene editing, GFP fluorescence intensity decrease (% of reduction) ([1]; Petroselinyl, 10 μM)","mean luminescent intensity (RLuc pDNA) (Hela cells; HeLa, Petroselinyl, 10 μM)","mean luminescent intensity (RLuc pDNA) (Hela cells; Hela, Myristoleyl, 5 μM)","mean luminescent intensity (RLuc pDNA) (Hela cells; Hela, Myristoleyl, 10 μM)","mean luminescent intensity (RLuc pDNA) (Hela cells; Hela, Myristoleyl, 15 μM)","mean luminescent intensity (RLuc pDNA) (Hela cells; Hela, Palmitoleyl, 5 μM)","mean luminescent intensity (RLuc pDNA) (Hela cells; Hela, Petroselinyl, 5 μM)","mean luminescent intensity (RLuc pDNA) (Hela cells; Hela, Petroselinyl, 15 μM)","percentage of gene editing, GFP fluorescence intensity decrease (% of reduction) ([1]; Dodecanal, 5 μM)",other results
"CC(=O)N[C@@H](CCCNC(=N)N)C(=O)N[C@@H](CCCCNC(=O)CCCC(=O)NN)C(=O)N[C@@H](Cc1c[nH]cn1)C(=O)N[C@@H](CCCNC(=N)N)C(=O)N[C@@H](CCCCNC(=O)CCCC(=O)NN)C(=O)N[C@@H](CCCCNC(=O)CCCC(=O)NN)C(=O)N[C@@H](Cc1c[nH]cn1)C(N)=O [7.3(L-H), Ac-RK*HRK*K*H-NH2] (Ac-RK([Glutaryl-NHNH2])HRK([Glutaryl-NHNH2])K([Glutaryl-NHNH2])H-NH2)",−28%,−28%,−16%,−25%,−19%,−17%,−13%,−12%,−23%,−12%,−25%,−20%,107063 RLU,122581 RLU,115599 RLU,25022 RLU,226412 RLU,282134 RLU,13233 RLU,,"mean luminescent intensity (RLuc pDNA) (Hela cells; Hela, Palmitoleyl, 10 μM): 180751 RLU; mean luminescent intensity (RLuc pDNA) (Hela cells; Hela, Palmitoleyl, 15 μM): 31589 RLU"
"Ac-RHLK*RHK*RRLK*RH-NH2 (Ac-RHLKRHKRRLKRH-NH2; not fully specified (residues 4, 7, 11); printed as Ac-RHLK*RHK*RRLK*RH-NH2; also: linker on K* not given here) [13(3His)]",−34%,,,−1%,,,,,−28%,−24%,−15%,,115599 RLU,−294 RLU,−246 RLU,−405 RLU,8590 RLU,122581 RLU,25022 RLU,−33%,"percentage of gene editing, GFP fluorescence intensity decrease (% of reduction) ([1]; Petroselinyl, 5 μM): −16%; mean luminescent intensity (RLuc pDNA) (Hela cells; HeLa, Oleyl, 5 μM): 226412 RLU; mean luminescent intensity (RLuc pDNA) (Hela cells; Hela, Oleyl, 10 μM): 180751 RLU; mean luminescent intensity (RLuc pDNA) (Hela cells; Hela, Oleyl, 15 μM): 31589 RLU"
"Ac-RHLK*RLK*RRLK*RL-NH2 (Ac-RHLKRLKRRLKRL-NH2; not fully specified (residues 4, 7, 11); printed as Ac-RHLK*RLK*RRLK*RL-NH2; also: linker on K* not given here) [13(Arg-His)]",−10%,14%,10%,33%,,,−4%,15%,−8%,26%,7%,,,−195 RLU,−333 RLU,−332 RLU,5484 RLU,8590 RLU,,−31%,"percentage of gene editing, GFP fluorescence intensity decrease (% of reduction) ([1]; Petroselinyl, 5 μM): −27%; mean luminescent intensity (RLuc pDNA) (Hela cells; Hela, Palmitoleyl, 10 μM): 921 RLU"
"Ac-RK*LRK*K*L-NH2 (Ac-RK(NHNH2)LRK(NHNH2)K(NHNH2)L-NH2; not fully specified; printed as Ac-RK*LRK*K*L-NH2; also: K*2,K*5,K*6: native or modified lysine (ε-amide to a linker)) [Peptide 7.3]",−24%,−29%,−19%,−20%,−14%,−7%,−3%,−1%,−14%,−14%,−4%,−1%,,−622 RLU,−417 RLU,−422 RLU,,,12638 RLU,−21%,"mean luminescent intensity (RLuc pDNA) (Hela cells; HeLa, Dodecanal, 5 μM): 5231 RLU; mean luminescent intensity (RLuc pDNA) (Hela cells; Hela, Palmitoleyl, 15 μM): 19128 RLU"
"Ac-RK*LRRK*L-NH2 (Ac-RK(NHNH2)LRRK(NHNH2)L-NH2; not fully specified; printed as Ac-RK*LRRK*L-NH2; also: K*2,K*6: native or modified lysine (ε-amide to a linker)) [Peptide 7.2]",−56%,−47%,−42%,−40%,−21%,,,,,,,,,−664 RLU,−678 RLU,−687 RLU,,,,−23%,"mean luminescent intensity (RLuc pDNA) (Hela cells; HeLa, Dodecanal, 5 μM): 2459 RLU"
"Ac-RRLK*RLLRRLK*RL-NH2 (Ac-RRLK(NHNH2)RLLRRLK(NHNH2)RL-NH2; not fully specified; printed as Ac-RRLK*RLLRRLK*RL-NH2; also: K*4,K*11: native or modified lysine (ε-amide to a linker)) [Peptide 13.2]",−41%,9%,,,,,−21%,−33%,,,,,,,,,,,,−36%,
